In PMC5218480 (PLoS ONE, 2017):

System: MV-4-11 cells
Experiment: Gene expression microarray analysis (Affymetrix PrimeView) and GSEA
Assay type: cell-based, human
Set-up: RFU PODN (11730768_x_at) / Fold change /veh PODN (11730768_x_at) / RFU LINC00158 (11744669_a_at) / Fold change /veh LINC00158 (11744669_a_at) / RFU DUSP10 (11751237_a_at) / Fold change /veh DUSP10 (11751237_a_at) / RFU ID3 (11757404_x_at) / Fold change /veh ID3 (11757404_x_at) / RFU PLEKHG5 (11737974_s_at) / Fold change /veh PLEKHG5 (11737974_s_at) / RFU LRRC4B (11730491_at) / Fold change /veh LRRC4B (11730491_at) / RFU GIMAP4 (11747438_a_at) / Fold change /veh GIMAP4 (11747438_a_at) / RFU KRT8 (11758183_x_at) / Fold change /veh KRT8 (11758183_x_at) / RFU CNN1 (11734310_a_at) / Fold change /veh CNN1 (11734310_a_at) / RFU VPS37D (11726825_at) / Fold change /veh VPS37D (11726825_at) / RFU C10orf10 (11716522_x_at) / Fold change /veh C10orf10 (11716522_x_at) / RFU KIR2DL2 /// KIR2DL4 /// KIR2DL5A /// KIR2DL5B /// KIR2DS1 /// KIR2DS2 /// KIR2DS3 /// KIR2DS4 /// KIR3DL3 /// KIR3DL3 /// KIR3DS1 (11738374_at) / Fold change /veh KIR2DL2 /// KIR2DL4 /// KIR2DL5A /// KIR2DL5B /// KIR2DS1 /// KIR2DS2 /// KIR2DS3 /// KIR2DS4 /// KIR3DL3 /// KIR3DL3 /// KIR3DS1 (11738374_at) / RFU C1QL1 (11718748_at) / Fold change /veh C1QL1 (11718748_at) / RFU TMPRSS4 (11747572_a_at) / Fold change /veh TMPRSS4 (11747572_a_at) / RFU HAMP (11756126_x_at) / Fold change /veh HAMP (11756126_x_at) / RFU RNFT2 (11725882_a_at) / Fold change /veh RNFT2 (11725882_a_at) / RFU NR4A2 (11747474_a_at) / Fold change /veh NR4A2 (11747474_a_at) / RFU ABCC12 (11746883_a_at) / Fold change /veh ABCC12 (11746883_a_at) / RFU TMEM136 (11760407_x_at) / Fold change /veh TMEM136 (11760407_x_at) / RFU CLDN22 /// WWC2 (11732394_at) / Fold change /veh CLDN22 /// WWC2 (11732394_at) / RFU HLA-DPB1 (11760878_x_at) / Fold change /veh HLA-DPB1 (11760878_x_at) / RFU SPINT1 (11716480_a_at) / Fold change /veh SPINT1 (11716480_a_at) / RFU GAP43 (11754022_s_at) / Fold change /veh GAP43 (11754022_s_at) / RFU A4GNT (11735810_at) / Fold change /veh A4GNT (11735810_at) / RFU PRB3 (11715151_x_at) / Fold change /veh PRB3 (11715151_x_at) / RFU TUBB4B (11761932_at) / Fold change /veh TUBB4B (11761932_at) / RFU CAPN14 (11732068_a_at) / Fold change /veh CAPN14 (11732068_a_at) / RFU TMCC2 (11721928_a_at) / Fold change /veh TMCC2 (11721928_a_at) / RFU IRGQ (11745062_a_at) / Fold change /veh IRGQ (11745062_a_at) / RFU FAM174B (11720279_a_at) / Fold change /veh FAM174B (11720279_a_at) / RFU TMPRSS4 (11748680_a_at) / Fold change /veh TMPRSS4 (11748680_a_at) / RFU FAM212B (11763350_a_at) / Fold change /veh FAM212B (11763350_a_at) / RFU PLEKHG5 (11743358_a_at) / Fold change /veh PLEKHG5 (11743358_a_at) / RFU ZSCAN30 (11745921_a_at) / Fold change /veh ZSCAN30 (11745921_a_at) / RFU CMKLR1 (11741424_a_at) / Fold change /veh CMKLR1 (11741424_a_at) / RFU LOC101060620 /// MAPK8IP1 (11723275_at) / Fold change /veh LOC101060620 /// MAPK8IP1 (11723275_at) / RFU SPTSSB (11747773_x_at) / Fold change /veh SPTSSB (11747773_x_at) / RFU PRSS12 (11739890_at) / Fold change /veh PRSS12 (11739890_at) / RFU BIN1 (11741810_x_at) / Fold change /veh BIN1 (11741810_x_at) / RFU WNT11 (11732464_a_at) / Fold change /veh WNT11 (11732464_a_at) / RFU C10orf10 (11716521_a_at) / Fold change /veh C10orf10 (11716521_a_at) / RFU C5orf56 (11738089_at) / Fold change /veh C5orf56 (11738089_at) / RFU CYB561 (11721691_x_at) / Fold change /veh CYB561 (11721691_x_at) / RFU ANKRD19P (11752326_a_at) / Fold change /veh ANKRD19P (11752326_a_at) / RFU OR2T12 /// OR2T33 /// OR2T8 (11738714_s_at) / Fold change /veh OR2T12 /// OR2T33 /// OR2T8 (11738714_s_at) / RFU VCAN (11748164_a_at) / Fold change /veh VCAN (11748164_a_at) / RFU JSRP1 (11732532_at) / Fold change /veh JSRP1 (11732532_at) / RFU KRTAP10-11 (11738290_x_at) / Fold change /veh KRTAP10-11 (11738290_x_at) / RFU MYO3A (11730013_a_at) / Fold change /veh MYO3A (11730013_a_at) / RFU EBF3 (11725865_a_at) / Fold change /veh EBF3 (11725865_a_at) / RFU CAMK2N1 (11719241_x_at) / Fold change /veh CAMK2N1 (11719241_x_at) / RFU C5orf56 (11738088_a_at) / Fold change /veh C5orf56 (11738088_a_at) / RFU OLFML3 (11715873_a_at) / Fold change /veh OLFML3 (11715873_a_at) / RFU LOC100653217 /// NTM (11731650_a_at) / Fold change /veh LOC100653217 /// NTM (11731650_a_at) / RFU MAPK11 (11762145_a_at) / Fold change /veh MAPK11 (11762145_a_at) / RFU FIZ1 (11724087_x_at) / Fold change /veh FIZ1 (11724087_x_at) / RFU OASL (11726364_x_at) / Fold change /veh OASL (11726364_x_at) / RFU SOX15 (11748057_x_at) / Fold change /veh SOX15 (11748057_x_at) / RFU CD79A (11719716_a_at) / Fold change /veh CD79A (11719716_a_at) / RFU HIST1H1D (11736915_at) / Fold change /veh HIST1H1D (11736915_at) / RFU CASKIN2 (11723855_a_at) / Fold change /veh CASKIN2 (11723855_a_at) / RFU LOC730098 (11760151_x_at) / Fold change /veh LOC730098 (11760151_x_at) / RFU OR4N2 (11742367_at) / Fold change /veh OR4N2 (11742367_at) / RFU PRRT2 (11749266_a_at) / Fold change /veh PRRT2 (11749266_a_at) / RFU SNX32 (11753110_a_at) / Fold change /veh SNX32 (11753110_a_at) / RFU CDHR5 (11726645_a_at) / Fold change /veh CDHR5 (11726645_a_at) / RFU RCAN1 (11760418_a_at) / Fold change /veh RCAN1 (11760418_a_at) / RFU FAM167A (11723789_a_at) / Fold change /veh FAM167A (11723789_a_at) / RFU FAM26E (11764081_at) / Fold change /veh FAM26E (11764081_at) / RFU ISYNA1 (11749810_s_at) / Fold change /veh ISYNA1 (11749810_s_at) / RFU ACY1 (11761880_at) / Fold change /veh ACY1 (11761880_at) / RFU 11764098_at / Fold change /veh 11764098_at / RFU SAMD14 (11745864_x_at) / Fold change /veh SAMD14 (11745864_x_at) / RFU NPB (11741838_a_at) / Fold change /veh NPB (11741838_a_at) / RFU TMPRSS6 (11731388_a_at) / Fold change /veh TMPRSS6 (11731388_a_at) / RFU KRTAP10-2 (11738614_at) / Fold change /veh KRTAP10-2 (11738614_at) / RFU ARHGAP8 /// PRR5-ARHGAP8 (11727945_x_at) / Fold change /veh ARHGAP8 /// PRR5-ARHGAP8 (11727945_x_at) / RFU KRTAP5-7 /// NADSYN1 (11734609_at) / Fold change /veh KRTAP5-7 /// NADSYN1 (11734609_at) / RFU RASL12 (11751679_a_at) / Fold change /veh RASL12 (11751679_a_at) / RFU CDKN2B (11736163_a_at) / Fold change /veh CDKN2B (11736163_a_at) / RFU PRF1 (11729649_at) / Fold change /veh PRF1 (11729649_at) / RFU, ZNF638 /// ZNF638-IT1 / Fold change vs veh, ZNF638 /// ZNF638-IT1 / RFU, PANK3 / Fold change vs veh, PANK3 / RFU, SH3YL1 / Fold change vs veh, SH3YL1 / RFU, ZEB2 / Fold change vs veh, ZEB2 / RFU, NRIP1 / Fold change vs veh, NRIP1 / RFU, PTTG1IP / Fold change vs veh, PTTG1IP / RFU, CAPN2 / Fold change vs veh, CAPN2 / RFU, MED14 / Fold change vs veh, MED14 / RFU, SNORA58 / Fold change vs veh, SNORA58 / RFU, C1orf63 / Fold change vs veh, C1orf63 / RFU, LRRFIP1 / Fold change vs veh, LRRFIP1 / RFU, NDUFAF7 / Fold change vs veh, NDUFAF7 / RFU, SLC12A2 / Fold change vs veh, SLC12A2 / RFU, IBTK / Fold change vs veh, IBTK / RFU, ESF1 / Fold change vs veh, ESF1 / Fold change vs veh, TMEM50B / RFU, TAOK1 / Fold change vs veh, TAOK1 / RFU, ACBD3 / Fold change vs veh, ACBD3 / RFU, TMA16 / Fold change vs veh, TMA16 / RFU, RWDD3 / Fold change vs veh, RWDD3 / RFU, BCAT1 / Fold change vs veh, BCAT1 / RFU, EDEM3 / Fold change vs veh, EDEM3 / RFU, TMEM33 / Fold change vs veh, TMEM33 / RFU, WDR75 / Fold change vs veh, WDR75 / RFU, AHCTF1 / Fold change vs veh, AHCTF1 / RFU, TFRC / Fold change vs veh, TFRC / RFU, ZDHHC17 / Fold change vs veh, ZDHHC17 / RFU, NOM1 / Fold change vs veh, NOM1 / RFU, ARL8B / Fold change vs veh, ARL8B / RFU, ZBTB11 / Fold change vs veh, ZBTB11 / RFU, TAMM41 / Fold change vs veh, TAMM41 / RFU, KIAA1704 /// LOC100996395 / Fold change vs veh, KIAA1704 /// LOC100996395 / RFU, ING1 / Fold change vs veh, ING1 / RFU, TRMT61B / Fold change vs veh, TRMT61B / RFU, FUBP3 / Fold change vs veh, FUBP3 / RFU, TP53 / Fold change vs veh, TP53 / RFU, TNKS2 / Fold change vs veh, TNKS2 / RFU, ZFP14 / Fold change vs veh, ZFP14 / RFU, ACTR2 / Fold change vs veh, ACTR2 / RFU, PPP3R1 / Fold change vs veh, PPP3R1 / RFU, PIK3R1 / Fold change vs veh, PIK3R1 / RFU, HNRNPA1 / Fold change vs veh, HNRNPA1 / RFU, RNF170 / Fold change vs veh, RNF170 / RFU, ZNF28 / Fold change vs veh, ZNF28 / RFU, RNGTT / Fold change vs veh, RNGTT / RFU, OGT / Fold change vs veh, OGT / RFU, BRD1 / Fold change vs veh, BRD1 / RFU, MARS / Fold change vs veh, MARS / RFU, ZNF655 / Fold change vs veh, ZNF655 / RFU, FAHD1 / Fold change vs veh, FAHD1 / RFU, BDP1 / Fold change vs veh, BDP1 / RFU, LRRCC1 / Fold change vs veh, LRRCC1 / RFU, ARID1A / Fold change vs veh, ARID1A / RFU, ZNF146 / Fold change vs veh, ZNF146 / RFU, ZNF330 / Fold change vs veh, ZNF330 / RFU, GPN3 / Fold change vs veh, GPN3 / RFU, C9orf123 / Fold change vs veh, C9orf123 / RFU, N4BP2L2 / Fold change vs veh, N4BP2L2 / RFU, ARFIP1 / Fold change vs veh, ARFIP1 / RFU, FAM179B / Fold change vs veh, FAM179B / RFU, BCL10 / Fold change vs veh, BCL10 / RFU, UHRF1BP1L / Fold change vs veh, UHRF1BP1L / RFU, BET1 / Fold change vs veh, BET1 / RFU, CNOT2 / Fold change vs veh, CNOT2 / RFU, ZNF268 / Fold change vs veh, ZNF268 / Fold change vs veh, ZNF507 / RFU, DGCR2 / Fold change vs veh, DGCR2 / RFU, WDSUB1 / Fold change vs veh, WDSUB1 / Fold change vs veh, HSP90B1 /// MIR3652 / RFU, ADSS / Fold change vs veh, ADSS / RFU, GK / Fold change vs veh, GK / RFU, ZNF148 / Fold change vs veh, ZNF148 / RFU, TAF9 / Fold change vs veh, TAF9 / RFU, SLC1A5 / Fold change vs veh, SLC1A5 / RFU, SLMO2 / Fold change vs veh, SLMO2 / RFU, ABCC4 / Fold change vs veh, ABCC4 / RFU, LOC101060439 /// RAP1B / Fold change vs veh, LOC101060439 /// RAP1B / RFU, RFX7 / Fold change vs veh, RFX7 / RFU, GTPBP10 / Fold change vs veh, GTPBP10 / RFU, CNEP1R1 / Fold change vs veh, CNEP1R1 / RFU, BIVM-ERCC5 /// ERCC5 / Fold change vs veh, BIVM-ERCC5 /// ERCC5 / RFU, ILF3 / Fold change vs veh, ILF3 / RFU 11762660_at / Fold change /veh 11762660_at / RFU VCAN (11757783_s_at) / Fold change /veh VCAN (11757783_s_at) / RFU DDX43 (11728927_at) / Fold change /veh DDX43 (11728927_at) / RFU KRT8 (11758188_x_at) / Fold change /veh KRT8 (11758188_x_at) / RFU NKD1 (11759106_at) / Fold change /veh NKD1 (11759106_at) / RFU SRD5A1 (11742802_a_at) / Fold change /veh SRD5A1 (11742802_a_at) / RFU TPSAB1 /// TPSB2 (11721975_s_at) / Fold change /veh TPSAB1 /// TPSB2 (11721975_s_at) / RFU GSTM3 (11746129_a_at) / Fold change /veh GSTM3 (11746129_a_at) / RFU IL23R (11737362_x_at) / Fold change /veh IL23R (11737362_x_at) / RFU TMEM51 (11727254_a_at) / Fold change /veh TMEM51 (11727254_a_at) / RFU PIWIL2 (11732686_x_at) / Fold change /veh PIWIL2 (11732686_x_at) / RFU ORM1 (11744905_x_at) / Fold change /veh ORM1 (11744905_x_at) / RFU CCDC152 (11743942_at) / Fold change /veh CCDC152 (11743942_at) / RFU ECM1 (11717891_a_at) / Fold change /veh ECM1 (11717891_a_at) / RFU IL23R (11748794_a_at) / Fold change /veh IL23R (11748794_a_at) / RFU TNFAIP8L3 (11732012_x_at) / Fold change /veh TNFAIP8L3 (11732012_x_at) / RFU MBOAT4 (11741988_at) / Fold change /veh MBOAT4 (11741988_at) / RFU 11764193_at / Fold change /veh 11764193_at / RFU TMEM53 (11763286_at) / Fold change /veh TMEM53 (11763286_at) / RFU MAGEB2 (11727129_at) / Fold change /veh MAGEB2 (11727129_at) / RFU TMEM200A (11744735_a_at) / Fold change /veh TMEM200A (11744735_a_at) / RFU CCDC152 (11751479_a_at) / Fold change /veh CCDC152 (11751479_a_at) / RFU FAM211A (11726209_a_at) / Fold change /veh FAM211A (11726209_a_at) / RFU RGS16 (11746705_a_at) / Fold change /veh RGS16 (11746705_a_at) / RFU VCAN (11755009_s_at) / Fold change /veh VCAN (11755009_s_at) / RFU RHOB (11743442_s_at) / Fold change /veh RHOB (11743442_s_at) / RFU RGS16 (11720943_a_at) / Fold change /veh RGS16 (11720943_a_at) / RFU RGS16 (11720944_at) / Fold change /veh RGS16 (11720944_at) / RFU, VPS4B / Fold change vs veh, VPS4B / RFU, CREB1 / Fold change vs veh, CREB1 / RFU, DNAJC13 / Fold change vs veh, DNAJC13 / RFU, GNAQ / Fold change vs veh, GNAQ / RFU, CDK5R1 / Fold change vs veh, CDK5R1 / RFU, ZRANB3 / Fold change vs veh, ZRANB3 / RFU, CUL4A / Fold change vs veh, CUL4A / RFU, CCNY / Fold change vs veh, CCNY / RFU, UFL1 / Fold change vs veh, UFL1 / RFU, COG3 / Fold change vs veh, COG3 / RFU, DIAPH2 / Fold change vs veh, DIAPH2 / RFU, SKA2 / Fold change vs veh, SKA2 / RFU, AFF3 / Fold change vs veh, AFF3 / RFU, LMF1 / Fold change vs veh, LMF1 / RFU, IPO11 / Fold change vs veh, IPO11 / RFU, DFFB / Fold change vs veh, DFFB / RFU, FOXP1 / Fold change vs veh, FOXP1 / RFU, CARD8 / Fold change vs veh, CARD8 / RFU, STRN3 / Fold change vs veh, STRN3 / RFU, ADK / Fold change vs veh, ADK / RFU, RASSF2 / Fold change vs veh, RASSF2 / RFU, WIPF1 / Fold change vs veh, WIPF1 / RFU, LARP1B / Fold change vs veh, LARP1B / RFU, RASA1 / Fold change vs veh, RASA1 / RFU, RB1 / Fold change vs veh, RB1 / RFU, PPFIA1 / Fold change vs veh, PPFIA1 / RFU, MAT2A / Fold change vs veh, MAT2A / RFU, CCT5 / Fold change vs veh, CCT5 / RFU, WDR92 / Fold change vs veh, WDR92 / RFU, CUX1 / Fold change vs veh, CUX1 / RFU, TTC7A / Fold change vs veh, TTC7A / RFU, TMEM135 / Fold change vs veh, TMEM135 / RFU, DEPTOR / Fold change vs veh, DEPTOR / RFU, CPM / Fold change vs veh, CPM / RFU, DNAJB6 / Fold change vs veh, DNAJB6 / RFU, CACNA2D3 / Fold change vs veh, CACNA2D3 / RFU, DTX4 / Fold change vs veh, DTX4 / RFU, TFCP2 / Fold change vs veh, TFCP2 / RFU, GMCL1 /// GMCL1P1 / Fold change vs veh, GMCL1 /// GMCL1P1 / RFU, AEBP2 / Fold change vs veh, AEBP2 / RFU, SNHG1 /// SNORD22 /// SNORD25 /// SNORD26 /// SNORD27 /// SNORD28 /// SNORD29 /// SNORD31 / Fold change vs veh, SNHG1 /// SNORD22 /// SNORD25 /// SNORD26 /// SNORD27 /// SNORD28 /// SNORD29 /// SNORD31 / Fold change (Aza/veh), C12orf56 (ProbeSet 11735607_a_at) / Fold change (ACY-1035/veh), C12orf56 (ProbeSet 11735607_a_at) / Fold change (Aza/veh), FGFR1OP (ProbeSet 11751329_s_at) / Fold change (ACY-1035/veh), FGFR1OP (ProbeSet 11751329_s_at) / Fold change (Aza/veh), VPS36 (ProbeSet 11739960_a_at) / Fold change (ACY-1035/veh), VPS36 (ProbeSet 11739960_a_at) / RFU SYPL1 (11715823_x_at) / Fold change /veh SYPL1 (11715823_x_at) / RFU IGFBP7 (11715501_s_at) / Fold change /veh IGFBP7 (11715501_s_at) / RFU REEP3 (11722064_at) / Fold change /veh REEP3 (11722064_at) / RFU IGLL1 (11728026_x_at) / Fold change /veh IGLL1 (11728026_x_at): dose or concentration left out as unconfirmed
Conditions: ProbeSet 11741199_a_at; LIST B

Nc1ccc(-c2cccs2)cc1NC(=O)c1ccc2c(c1)cc(C1CC1)n2CCN1CCOCC1 [ACY-1035]
Fold change vs veh, LRRCC1: 0.84
